This is an account of results in publication PMC6934184, “Selective DNA-PKcs inhibition extends the therapeutic index of localized radiotherapy and chemotherapy” (The Journal of Clinical Investigation, 2019).

The experiment has as its target T1, ULK1 (Homo sapiens, UniProt O75385).
T1 construct: purchased Thermo Fisher Scientific (Life Technologies) SelectScreen
Kind of experiment: SelectScreen LanthaScreen. The format is binding. The conditions noted are these: 1 µM. In a few lines: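 SelectScreen broad panel; activity (Z'LYTE, Adapta) plus binding formats. ATP: Km app for CSF1R Z'LYTE; 10 for CAMK1 Adapta. Readout = % per kinase.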

T1 sequence (O75385 whole entry): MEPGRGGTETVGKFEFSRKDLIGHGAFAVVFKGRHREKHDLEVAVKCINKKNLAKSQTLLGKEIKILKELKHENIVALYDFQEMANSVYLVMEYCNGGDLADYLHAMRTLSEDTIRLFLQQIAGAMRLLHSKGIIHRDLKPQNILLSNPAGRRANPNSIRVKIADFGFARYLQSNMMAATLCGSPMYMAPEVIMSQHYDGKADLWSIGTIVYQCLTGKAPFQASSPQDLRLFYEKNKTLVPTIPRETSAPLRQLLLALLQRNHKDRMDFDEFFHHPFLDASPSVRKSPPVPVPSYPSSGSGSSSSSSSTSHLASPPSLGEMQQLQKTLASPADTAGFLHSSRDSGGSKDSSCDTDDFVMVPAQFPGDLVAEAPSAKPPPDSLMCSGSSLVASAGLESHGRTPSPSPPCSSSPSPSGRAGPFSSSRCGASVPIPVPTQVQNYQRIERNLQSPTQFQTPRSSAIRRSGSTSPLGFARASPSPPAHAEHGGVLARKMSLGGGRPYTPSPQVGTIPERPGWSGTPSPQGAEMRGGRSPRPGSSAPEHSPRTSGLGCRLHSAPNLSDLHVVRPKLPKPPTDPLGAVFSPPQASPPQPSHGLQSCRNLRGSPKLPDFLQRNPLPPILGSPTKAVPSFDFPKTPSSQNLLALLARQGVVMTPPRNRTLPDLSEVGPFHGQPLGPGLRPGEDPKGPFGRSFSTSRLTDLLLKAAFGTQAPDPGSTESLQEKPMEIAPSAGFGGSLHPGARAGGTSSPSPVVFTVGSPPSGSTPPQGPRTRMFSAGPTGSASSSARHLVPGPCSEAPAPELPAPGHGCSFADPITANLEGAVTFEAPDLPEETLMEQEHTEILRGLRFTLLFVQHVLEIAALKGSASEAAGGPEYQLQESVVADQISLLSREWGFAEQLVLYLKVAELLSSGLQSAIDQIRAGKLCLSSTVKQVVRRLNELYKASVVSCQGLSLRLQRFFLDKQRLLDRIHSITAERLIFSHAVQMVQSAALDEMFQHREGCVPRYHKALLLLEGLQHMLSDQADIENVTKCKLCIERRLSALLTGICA

With `CN(C(=O)CN1CCOCC1)c1ccc2sc3c(-c4cccc5c(=O)cc(N6CC7CCC(C6)O7)oc45)cccc3c2c1` [NU5455], the “% displacement” value is given as 1.8%.
